In PubChem BioAssay AID493002 (Sanford-Burnham Center for Chemical Genomics, 2010):

Tested on: S. cerevisiae tim23-1 mutant growth, luminescence
Assay: potency against tim23-1 yeast growth – luminescence, uHTS hits, dose response (AID 493002);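 further: yeast grown roughly 22 hours at 25 °C before the luminescence read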

Row | SMILES | IC50
1 | Nc1ccc2nc(SCc3ccccc3F)sc2c1 | 7.18 µM
2 | COc1cccc(NC(=O)c2ccccc2)c1 | 11.3 µM
3 | Cn1nc(C(F)(F)F)c2cc(NC(=O)OCC(C)(C)C)sc21 | 28.2 µM
4 | COc1ccc(/C=N/NC(=O)c2cccs2)c2ccccc12 | 13.7 µM
5 | CCSc1ncc(/C=N/Nc2ccc(Cl)cc2)n1C | 5.9 µM
6 | COc1ccc(S(=O)(=O)CC(=O)c2cc3cccc(C)c3oc2=O)cc1 | 13 µM
7 | Cc1ccc(S(=O)(=O)Oc2ccccc2C=C2C(=O)N(C)C(=O)N(C)C2=O)cc1 | 4.22 µM
8 | O=C1NN=C(c2ccc(Br)cc2)CC1c1ccc(Cl)cc1 (stereo not drawn) | 9.86 µM
9 | C=CCn1c(SCc2cc(=O)n3ccsc3n2)nc2cc(Cl)ccc2c1=O | 6.15 µM
10 | Nc1ccc(O)c2c1C(=O)c1ccccc1C2=O | 11.3 µM
11 | O=C(Nc1ccc2nc(-c3ccccc3)[nH]c2c1)c1cccs1 | 3.62 µM
12 | Oc1ccccc1C1NN=C(c2ccccc2)S1 (stereo not drawn) | 18.3 µM
13 | c1ccc(-c2ncc(-c3ccn[nH]3)s2)cc1 | 5.97 µM
14 | CCc1cccc2c(C(=O)CCl)c[nH]c12 | 9.27 µM
15 | O=C(Nc1nc2c(F)cccc2s1)c1ccco1 | 16.7 µM
16 | NC(=O)c1c(NC(=O)c2ccccc2F)sc2c1CCCC2 | 38.3 µM
17 | COC(=O)N/N=C/c1ccc(-c2cc(Cl)cc(Cl)c2)o1 | 8.73 µM
18 | O=C(CCl)Nc1cccc(-c2cnc3ccccc3n2)c1 | 9.25 µM
19 | CC(=O)Nc1ccc(S(=O)(=O)N(Cc2cccnc2)Cc2cc3ccc(C)cc3[nH]c2=O)cc1 | 23.1 µM
20 | Cc1ccc(NC(=O)c2ccc3c(c2)OCCO3)cc1C | 13 µM
21 | Oc1ccccc1-c1cc(-c2ccccc2)n[nH]1 | 15.8 µM
22 | CCc1ccc2oc(-c3cc(N)ccc3Cl)nc2c1 | 6.18 µM
23 | Oc1ccccc1-c1cc(-c2ccc(F)cc2)n[nH]1 | 13.5 µM
24 | NC(=S)N/N=C/c1coc2ccc(Br)cc2c1=O | 4.4 µM

Row | SMILES | IC50
25 | CC1CCc2c(sc3nc(C(C)(C)C)nc(N4CCN(C(=O)CCl)CC4)c23)C1 (stereo not drawn) | 8.61 µM
26 | Cc1cnc(NC(=O)c2cc3c(s2)CCCC3)s1 | 14.5 µM
27 | CCCCn1c(N)c(N(CCC(C)C)C(=O)c2ccc3c(c2)OCO3)c(=O)[nH]c1=O | 11.1 µM
28 | O=C1OC(c2ccccc2)=N/C1=C\C=C\c1ccco1 | 5.33 µM
29 | N#C/C(=C\c1cc(Cl)cc(Cl)c1O)C(=O)NC1CCCCC1 | 10 µM
30 | COc1ccc2oc(/C=C/N(C)C)c(C(=O)c3ccc(Cl)cc3)c2c1 | 15 µM
31 | CCOC(=O)/C(=C/c1ccc(OC(=O)c2ccncc2)cc1)C(C)=O | 11 µM
32 | CCCN(C(=O)c1ccc([N+](=O)[O-])c(C)c1)c1c(N)n(Cc2ccccc2)c(=O)[nH]c1=O | 5.69 µM
33 | COc1cccc(/C=N/NC(=O)c2cc(C34CC5CC(CC(C5)C3)C4)[nH]n2)c1 | 10.9 µM
34 | CC(C)CN(C(=O)c1ccc2c(c1)OCCO2)c1c(N)n(Cc2ccccc2)c(=O)[nH]c1=O | 14.2 µM
35 | CN1C(=O)/C(=C\c2ccco2)N=C1c1ccc(Cl)cc1Cl | 12.8 µM
36 | CCNC(=O)c1c(O)c2ccccc2[nH]c1=O | 33.5 µM
37 | O=C(N/N=C/c1cc(Br)cc(Br)c1O)c1cccc(N2CCCC2=O)c1 | 6.37 µM
38 | O=C(c1cc(-c2ccc(O)cc2)on1)N1CCc2ccccc2C1 | 8.85 µM
39 | O=C(Oc1ccc(=O)n(-c2ccccc2)n1)c1ccc(Cl)cc1 | 11.8 µM
40 | O=C(Nc1cccc(F)c1)N1CC=C(c2ccc(Cl)cc2)CC1 | 12.8 µM
41 | CC1CCC(NC(=O)c2cc(C3CC3)nn2-c2ccccc2)CC1 (stereo not drawn) | 15.8 µM
42 | COc1ccc(C(=O)c2sc(Nc3ccccc3F)nc2N)cc1 | 8.51 µM
43 | Cc1cc(=O)oc2c1c(C(F)(F)F)nn2-c1ccccc1 | 7.85 µM
44 | O=S1(=O)N[C@@H](Cc2ccccc2)COc2cc(Br)ccc21 | 18.4 µM
45 | CC(C)n1ncc2c(C(=O)NCC(=O)Nc3ccccc3Br)cc(C3CC3)nc21 | 16 µM
46 | Cc1nc2ccc(C(C(F)(F)F)(C(F)(F)F)C(F)(F)F)cc2[nH]1 | 5.02 µM
47 | O=Cc1sc(Nc2ccccc2)nc1Cl | 11.7 µM
48 | O=C(COc1ccccc1)N/N=C/c1ccc([N+](=O)[O-])o1 | 6.56 µM
